The values below come from US20100209484A1, “Transdermal Triptan Delivery System” (priority 2009, published 2010).

Read-outs that look alike come from different tables or passages of the source.

For data set [1] the following is noted: cited from earlier work.
Data set [2] deals with isolated hairless mouse skin. The data set can be described thus: Skin permeation rate, flow-through diffusion cells. The data set is classed as in vitro ADME. Particulars: for Flux / Lag time: n = 3. As for the experimental part:
Skin permeation rates of various zolmitriptan/enhancer formulations were determined using flow through diffusion cells. Permeation experiments were done on isolated hairless mouse skin. A system comprising a multi channel peristaltic pump, a fraction collector, a circulating water bath and flow-through diffusion cells was used. Each flow-through cell had two arms, which allowed the receiver cell medium pumped to a fraction collector. The diffusion cell temperature was maintained at 37° C. by circulating water through the outer part of jacketed receiver cell. The surface area of receiver cell opening as 2 cm^2, and its volume was 5.5 ml Skin was excised from hairless mouse that was sacrificed with diethyl ether. Subcutaneous fat was removed with scissors and scalpel. Each of the flow-through diffusion cell components was connected via silicone rubber tubing with an internal diameter of 0.015 inches. The receiver cell was filled with a pH 6 buffer solution and the media stirred by Teflon-coated magnetic bar. The transdermal device was placed on the stratum corneum and the excised skin was mounted onto each receiver cell. And O-ring and cell top was placed on the top of each skin. These components are then clamped. The amount of drug permeated across the skin was calculated from the cumulative release. The samples were collected every 4 hours for 24 hours and assayed by HPLC. This method was used to measure skin permeation rates referred to as transdermal flux or flux in the examples. Zolmitriptan was analyzed by an HPLC system (Shimadzu Scientific Instruments, MD), consisting of a UV detector (SPD-10A), reversed-phase C8 column, a pump (LC-10AD), and an automatic injector (SIL-10A). The method had been previously described (Vyas et. al., 2005). Briefly, the wavelength of the UV detector was 229 nm, the column temperature was maintained at 30° C., the flow rate was 1 ml/min and injection volume was 10 μl. The mobile phase used consisted of acetonitrile/phosphate buffer pH 7.5 (15/85).

For data set [3] the following is noted: cited from earlier work. This is another data set of the same source.
Data set [4] in a line: Solubility of zolmitriptan in pressure sensitive adhesive matrixes. Type of data set: physicochemical. Conditions: silicone and PIB adhesive matrixes.
The nature of data set [5]: Physical observation of patches by eye or microscope. Type of data set: physicochemical. The text has this:
Permeation is increased for a given concentration of triptan if the triptan is in solution in the matrix. The patches of Table 9 were stored at the room temperature for the designated period of time then observed by eye or/and a microscope. No crystals or white spots have been observed, and the patches are clear. […] This function has not previously been known for this class of compounds.

[6] abbreviates: acrylic adhesive matrix without functional group, zolmitriptan 4 wt%.
The mark [7] stands for this setting: adhesive matrix 87-2287 (hydroxyl functional group), zolmitriptan 4 wt%.
The mark [8] stands for this setting: adhesive matrix 87-2510 (hydroxyl functional group), zolmitriptan 4 wt%.
The mark [9] stands for this setting: adhesive matrix 87-2516 (hydroxyl functional group), zolmitriptan 4 wt%.
Setting [10] is: drug concentration 4 wt% in 87-2510 matrix.
Where [11] appears, read: drug concentration 5 wt% in 87-2510 matrix.
[12] abbreviates: drug concentration 7.5 wt% in 87-2510 matrix.
Setting [13] is: drug concentration 10 wt% in 87-2510 matrix.
Where [14] appears, read: matrix thickness 25 μm, 4% drug loading, 87-2510.
Where [15] appears, read: matrix thickness 60 μm, 4% drug loading, 87-2510.
[16] abbreviates: matrix thickness 95 μm, 4% drug loading, 87-2510.
Setting [17] is: matrix thickness 130 μm, 4% drug loading, 87-2510.
[18] abbreviates: matrix thickness 165 μm, 4% drug loading, 87-2510.

Take `CN[C@@H]1CCc2[nH]c3ccc(C(N)=O)cc3c2C1` [Frovatriptan]: the “bioavailable amount after oral ingestion” value was 30% in data set [1] (in females) and 24% in data set [1] (in males).

Consider `CN1CCC[C@@H]1Cc1c[nH]c2ccc(CCS(=O)(=O)c3ccccc3)cc12` [Eletriptan], for which, in data set [1], the “bioavailable amount after oral ingestion” value is reported as 50%.

In the case of `CN(C)CCc1c[nH]c2ccc(Cn3cncn3)cc12` [Rizatriptan], the “bioavailable amount after oral ingestion” value in data set [1] was 47%.

`CNS(=O)(=O)Cc1ccc2[nH]cc(CCN(C)C)c2c1` [Sumatriptan]: the “bioavailable amount after oral ingestion” value in data set [1] is on record as 14%.

Turning to `CNS(=O)(=O)CCc1ccc2[nH]cc(C3CCN(C)CC3)c2c1` [Naratriptan], the figures for the “bioavailable amount after oral ingestion” value in data set [1] (in females) and in data set [1] (in males) were 74% and 63%, respectively.

For `CN(C)CCc1c[nH]c2ccc(C[C@H]3COC(=O)N3)cc12` [Zolmitriptan], the Flux in data set [2] (setting [6]) was 6.16 μg/cm^2hr; in data set [2] (setting [7]) it was 6.5 μg/cm^2hr; in data set [2] (setting [8]), 15.6 μg/cm^2hr; in data set [2] (setting [9]), 14.4 μg/cm^2hr; in data set [2] (adhesive matrix with carboxyl functional group, zolmitriptan 4 wt%) it was 0.22 μg/cm^2hr; in data set [2] (setting [10]) it was 13.5 μg/cm^2hr. Besides, the Flux in data set [2] (setting [11]) is listed as 14.8 μg/cm^2hr; in data set [2] (setting [12]) it was 15.8 μg/cm^2hr; in data set [2] (setting [13]) it was 18.3 μg/cm^2hr; in data set [2] (setting [14]) it was 1.2 μg/cm^2hr; in data set [2] (setting [15]), 6.1 μg/cm^2hr; in data set [2] (setting [16]), 11.7 μg/cm^2hr. Further, the Flux in data set [2] (setting [17]) stood at 14.1 μg/cm^2hr; in data set [2] (setting [18]) it was 13.0 μg/cm^2hr. The Lag time in data set [2] (setting [6]) was 10.7 h; in data set [2] (setting [7]), 13.0 h; in data set [2] (setting [8]), 9.3 h; in data set [2] (setting [9]), 11.8 h; in data set [2] (setting [10]) it was 8.2 h; in data set [2] (setting [11]), 8.5 h. For the same compound, the Lag time was 8.4 h in data set [2] (setting [12]); 9.0 h in data set [2] (setting [13]); 9.0 h in data set [2] (setting [14]); 5.5 h in data set [2] (setting [15]); 5.2 h in data set [2] (setting [16]); 7.0 h in data set [2] (setting [17]). Further, in data set [2] (setting [18]), the Lag time worked out at 7.4 h. Moreover, the “change of flux with drug loading” value in data set [2] (drug loading in 87-2510 matrix increased from 4% to 10%) is “did not change significantly”. In addition, the pKa in data set [3] is 9.64. In data set [3] (in water and methanol), the solubility entry is “soluble”. For the same compound, in data set [1], the “bioavailable amount after oral ingestion” value is on record as 40%. In addition, in data set [4], the “solubility in adhesive matrix” value was “inadequate”. Also, the patch appearance result in data set [5] (4% drug load in 87-2510 matrix) is “clear”; in data set [5] (5% or more drug load in 87-2510 matrix), “milky”.

`CN(C)CCc1c[nH]c2ccc(CS(=O)(=O)N3CCCC3)cc12` [Almotriptan]: in data set [1], the “bioavailable amount after oral ingestion” value was 69%.

One may read the pKa as the negative logarithm of the acid dissociation constant.
